# Test results taken from US20260265199A1, “CRYSTALLINE FORMS OF (R)-2-AMINO-5-(4-(2-(3,5-DIFLUOROPHENYL)-2-HYDROXYACETAMIDO)-2-METHYLPHENYL)-N-ISOPROPYLNICOTINAMIDE AND METHODS FOR USING THE SAME” (HIBERCELL, INC., priority 2023, published 2026).
# Structures can show the parent of a compound that is named as a salt.
# What was measured:
# [1] = Inter-conversion study (competitive slurry) of hemi-fumarate Form A and Form B in IPA; type: physicochemical; settings: RT and 50° C.
# Experimental: Equal amount of the Form A of the hemi-fumarate salt and the Form B of the hemi-fumarate salt were added into IPA, and the suspensions were stirred at RT or 50° C. for 3 days, respectively. Residual solids were obtained and characterized. […] The overlay of the XRPD pattern from the inter-conversion study of the hemi-fumarate salt is depicted in FIG. 15.
# [2] = Dynamic vapor sorption (DVS Intrinsic, 25° C., 0-90% RH); type: physicochemical
# Experimental: Moisture sorption/desorption data were collected on a DVS Intrinsic (SMS, UK). The sample was placed into a tared sample chamber and automatically weighed. The sample was dried at 40° C. until the dm/dt was less than 0.002% and cooled to 25° C. Set the instrument parameters as below. • Step time (min): 60 min • Sample temperature: 25° C. • Cycle: Full cycle • Adsorption: 0, 10, 20, 30, 40, 50, 60, 70, 80, 90 • Desorption: 80, 70, 60, 50, 40, 30, 20, 10, 0 • Save Data Rate: 5 s • Total flow rate: 200 sccm • Post experiment total flow: 200 sccm
# The associated DVS isotherm plot of Form A of the hemi-fumarate salt is depicted in FIG. 10.
smiles,measurement,setting,value
"Cc1cc(NC(=O)[C@H](O)c2cc(F)cc(F)c2)ccc1-c1cnc(N)c(C(=O)NC(C)C)c1 [Form A of the hemi-fumarate salt, (R)-2-amino-5-(4-(2-(3,5-difluorophenyl)-2-hydroxyacetamido)-2-methylphenyl)-N-isopropylnicotinamide]",Relative stability of hemi-fumarate Form A vs Form B,[1],more stable form
same,Crystal form after DVS analysis,[2],did not change
same,Hygroscopicity (DVS),[2]; 25° C.,slightly hygroscopic
same,Water uptake (DVS),"[2]; at 80% RH, 25° C.",0.66%
